This data set is described as follows: Fluorescence lifetime analysis (phasor-FLIM) of DOX organization states and Doxoves®. It is filed as physicochemical. An excerpt: The procedure was applied to Doxoves® as follows: • 1) Based on previous knowledge, at least three different supramolecular organizations of DOX molecules are supposed to contribute to the overall nature of Doxoves® nanocarriers: crystallized DOX, free DOX, and DOX eventually associated with the nanocarrier surface, i.e. with lipids. These three forms are defined here as standards. • 2) The three standards identified at step 1 are obtained and measured. As a preliminary step, each standard is produced and dissolved in a buffer that is the same as that of the test substance. In the present case, manufacturer's indications were followed to produce the correct buffer composition. In general, substances having an impact on lifetime analysis of the test substance, e.g. Doxoves®, shall be also present in the standard substances. First, the phasor signature of crystalized DOX and free-in-solution DOX are measured: two mono-exponential lifetimes are obtained: 0.2 ns for the crystal and 1 ns for free DOX, respectively. […] Then, by spin-coating simil-Doxoves® nanoparticles on a glass surface. This procedure destroys mechanically the liposomal particles and recovers the liposomal membranes on the glass. […] It is important to note that lifetime measuring conditions, e.g. temperature, pH etc., shall be the same for measures on the test substance and measures on the standard substances. • 5) Doxoves® lifetime data are analysed by the phasor approach. In more detail, the phasor is calculated by using a dedicated routine in the SimFCS software (Laboratory for Fluorescence Dynamics, University of California, Irvine). […] Simple algebraic rules are adopted to extract quantitatively the relative contribution (fractional intensity) of each standard (by a dedicated routine in SimFCS software). • It may still be under question whether there may be more than three organization states, e.g. four defining a trapezoidal shape within the universal circle and circumscribing the location of the test substance lifetime decay within the universal circle. A final control experiment was thus performed to corroborate the hypothesis that only three standard components (and NOT more than three) contribute to the overall organization of encapsulated DOX. In brief, the lifetime of simil-Doxoves® in solution is measured. If only three components contribute to Doxoves® organization, simil-Doxoves® is expected to be a linear combination of just free DOX and DOX associated to nanocarrier lipids, thus lying along the segment that connects these two states.

Where [1] appears, read: within tested nanoparticles, FIG. 4, phasor plot triangle.

Consider `COc1cccc2c1C(=O)c1c(O)c3c(c(O)c1C2=O)C[C@@](O)(C(=O)CO)C[C@@H]3O[C@H]1C[C@H](N)[C@H](O)[C@H](C)O1` [DOX, doxorubicin], for which the “fluorescence lifetime of free DOX in solution, mono-exponential” value (pure standard, free in water/buffer, phasor approach) came to 1 ns. In addition, the “fluorescence lifetime of crystalized DOX (purified rod-shaped crystals), mono-exponential” value (pure standard, excitation 470 nm, emission 500-650 nm, phasor approach) came out at 0.2 ns. Further, under setting [1], the “fractional intensity of DOX conjugate with the lipids” value is given as 46%, the “fractional intensity of DOX organized into nanorod crystals” value amounted to 36% and the “fractional intensity of free DOX” value worked out at 18%.

The values are drawn from patent US11913882B2, “Determination of the supramolecular organization of encapsulated molecules by luminescence lifetime analysis” (SCUOLA NORMALE SUPERIORE, priority 2020, dated 2024).
